This is an account of results in the SangsterLogP compilation.

The nature of data set [1]: method code SF-AS, from DOI: 10.1021/jf00090a013.

Compound `CNC(=O)N(C)C(=O)Nc1cc(C(=O)OC)ccc1F` returned a logP in data set [1] of 2.28. Still for that read-out and setting: under `CCC(CC)c1ccc(F)c(NC(=O)N(C)C(=O)NC)c1` stands 4.46; under `CNC(=O)N(C)C(=O)Nc1cc([N+](=O)[O-])ccc1F`, 2.3. In the case of `CNC(=O)N(C)C(=O)Nc1cc(F)ccc1F`, the lipophilicity (logP) amounted to 2.4. Turning to `CNC(=O)N(C)C(=O)Nc1cc(OC(C)C)ccc1F`, the logP in data set [1] was found to be 3.08. As to `CNC(=O)N(C)C(=O)Nc1cc(-c2ccccc2)ccc1F`, the logP stood at 3.78. As for `CNC(=O)N(C)C(=O)Nc1cc(I)ccc1F`, in data set [1], the logP is 3.58. `CNC(=O)N(C)C(=O)Nc1cc(C(C)(C)C)ccc1F`: the logP worked out at 3.96. Still for that read-out and setting: with `CNC(=O)N(C)C(=O)Nc1cc(S(=O)(=O)C(C)C)ccc1F` the figure was 1.87. Compound `CNC(=O)N(C)C(=O)Nc1cc(OC)ccc1F` displayed a logP of 2.14.

As for `CNC(=O)N(C)C(=O)Nc1cc(Cc2ccccc2)ccc1F`, the logP came out at 3.9. In data set [1], `CNC(=O)N(C)C(=O)Nc1ccccc1F` yielded a logP of 2.12.

In turn, `CCc1ccc(F)c(NC(=O)N(C)C(=O)NC)c1` gave a logP in data set [1] of 3.23. Take `CNC(=O)N(C)C(=O)Nc1cc(C(C)C)ccc1F`: the lipophilicity (logP) in data set [1] is 3.53.

The compound `CNC(=O)N(C)C(=O)Nc1cc(C2CCCCC2)ccc1F` showed a logP in data set [1] of 4.58. In turn, `CNC(=O)N(C)C(=O)Nc1cc(C(C)=O)ccc1F` came in with a lipophilicity (logP) of 1.82.

By logP is commonly meant a log measure of how a compound divides between an organic and an aqueous phase. Lower therefore signals a more hydrophilic compound.
